# Results published in PubChem BioAssay AID1963424 (Molecular Pharmacology Branch, DTP, NCI, 2024).
# Values joined by “and” are separate entries in the source; they are usually repeats but may differ in a detail not shown here. Equal values may be shown once.
# Test system: 327498-153-R-J2-PDC complex spheroid growth, % test/control
# Assay: Anticancer human tumor 327498-153-R-J2-PDC patient-derived uterine carcinosarcoma cell line growth inhibition [Asc]
# Conditions: for viability, T/C: stronger effect = lower value
# Outline: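 Concentration series start at each agent's clinical Cmax, or at 10 microM when none is established, and drop in half-log steps; agents are applied alone or together to complex spheroids built with HUVEC and hMSC.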
# [1] = curve of first compound, second compound 0.03 µM
# [2] = curve of first compound, second compound 0.0949 µM
# [3] = curve of first compound, second compound 0.3 µM
# [4] = curve of first compound, second compound 0.949 µM
# [5] = curve of first compound, second compound 3 µM
# [6] = second compound 0.03 µM, first compound 0.0316 µM
# [7] = second compound 0.03 µM, first compound 0.1 µM
# [8] = second compound 0.03 µM, first compound 0.316 µM
# [9] = second compound 0.03 µM, first compound 1 µM
# [10] = second compound 0.03 µM, first compound 3.16 µM
# [11] = second compound 0.03 µM, first compound 10 µM
# [12] = second compound 0.0949 µM, first compound 0.0316 µM
# [13] = second compound 0.0949 µM, first compound 0.1 µM
# [14] = second compound 0.0949 µM, first compound 0.316 µM
# [15] = second compound 0.0949 µM, first compound 1 µM
# [16] = second compound 0.0949 µM, first compound 3.16 µM
# [17] = second compound 0.0949 µM, first compound 10 µM
# [18] = second compound 0.3 µM, first compound 0.0316 µM
# [19] = second compound 0.3 µM, first compound 0.1 µM
# [20] = second compound 0.3 µM, first compound 0.316 µM
# [21] = second compound 0.3 µM, first compound 1 µM
# [22] = second compound 0.3 µM, first compound 3.16 µM
# [23] = second compound 0.3 µM, first compound 10 µM
# [24] = second compound 0.949 µM, first compound 0.0316 µM
# [25] = second compound 0.949 µM, first compound 0.1 µM
# [26] = second compound 0.949 µM, first compound 0.316 µM
# [27] = second compound 0.949 µM, first compound 1 µM
# [28] = second compound 0.949 µM, first compound 3.16 µM
# [29] = second compound 0.949 µM, first compound 10 µM
# [30] = second compound 3 µM, first compound 0.0316 µM
# [31] = second compound 3 µM, first compound 0.1 µM
# [32] = second compound 3 µM, first compound 0.316 µM
# [33] = second compound 3 µM, first compound 1 µM
# [34] = second compound 3 µM, first compound 3.16 µM
# [35] = second compound 3 µM, first compound 10 µM
# 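Also: spheroids exposed to compound for 7 days after 3 days of growth.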
# 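For viability, T/C in this document: 100% = DMSO vehicle control wells.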
smiles,measurement,setting,value
O=C(c1cc(Cc2n[nH]c(=O)c3ccccc23)ccc1F)N1CCN(C(=O)C2CC2)CC1 + CNC(C)C(=O)NC1CN(S(=O)(=O)c2cccc(S(=O)(=O)N3CCC4CCC(C(=O)NC(c5ccccc5)c5ccccc5)N4C(=O)C(NC(=O)C(C)NC)C3)c2)CCC2CCC(C(=O)NC(c3ccccc3)c3ccccc3)N2C1=O,IC50,"curve of first compound, second compound 0.01 µM",4520 nM
same,IC50,"curve of first compound, second compound 0.0316 µM",3830 nM
same,IC50,"curve of first compound, second compound 0.1 µM",3780 nM
same,IC50,"curve of first compound, second compound 0.316 µM",4070 nM
same,IC50,"curve of first compound, second compound 1 µM",3710 nM
same,"viability, T/C","second compound 0.01 µM, first compound 0.0316 µM",98.8%
same,"viability, T/C","second compound 0.01 µM, first compound 0.1 µM",105%
same,"viability, T/C","second compound 0.01 µM, first compound 0.316 µM",102%
same,"viability, T/C","second compound 0.01 µM, first compound 1 µM",99.2%
same,"viability, T/C","second compound 0.01 µM, first compound 3.16 µM",67.9%
same,"viability, T/C","second compound 0.01 µM, first compound 10 µM",11.3%
same,"viability, T/C","second compound 0.0316 µM, first compound 0.0316 µM",102%
same,"viability, T/C","second compound 0.0316 µM, first compound 0.1 µM",100%
same,"viability, T/C","second compound 0.0316 µM, first compound 0.316 µM",108%
same,"viability, T/C","second compound 0.0316 µM, first compound 1 µM",88.5%
same,"viability, T/C","second compound 0.0316 µM, first compound 3.16 µM",58.7%
same,"viability, T/C","second compound 0.0316 µM, first compound 10 µM",9.57%
same,"viability, T/C","second compound 0.1 µM, first compound 0.0316 µM",97.5%
same,"viability, T/C","second compound 0.1 µM, first compound 0.1 µM",99.9%
same,"viability, T/C","second compound 0.1 µM, first compound 0.316 µM",102%
same,"viability, T/C","second compound 0.1 µM, first compound 1 µM",89.8%
same,"viability, T/C","second compound 0.1 µM, first compound 3.16 µM",57.6%
same,"viability, T/C","second compound 0.1 µM, first compound 10 µM",9.51%
same,"viability, T/C","second compound 0.316 µM, first compound 0.0316 µM",104%
same,"viability, T/C","second compound 0.316 µM, first compound 0.1 µM",107%
same,"viability, T/C","second compound 0.316 µM, first compound 0.316 µM",94.5%
same,"viability, T/C","second compound 0.316 µM, first compound 1 µM",91.4%
same,"viability, T/C","second compound 0.316 µM, first compound 3.16 µM",60.3%
same,"viability, T/C","second compound 0.316 µM, first compound 10 µM",11.1%
same,"viability, T/C","second compound 1 µM, first compound 0.0316 µM",96.8%
same,"viability, T/C","second compound 1 µM, first compound 0.1 µM",100%
same,"viability, T/C","second compound 1 µM, first compound 0.316 µM",94.5%
same,"viability, T/C","second compound 1 µM, first compound 1 µM",90.3%
same,"viability, T/C","second compound 1 µM, first compound 3.16 µM",56.4%
same,"viability, T/C","second compound 1 µM, first compound 10 µM",9.85%
C=C(F)C(=O)N1CCN(c2nc(OCC3CCCN3C)nc3c2CCN(c2cccc4cccc(Cl)c24)C3)CC1CC#N (configuration not stated) + CCN1C(C(=O)NC23CCC(C(=O)O)(CC2)CC3)C(c2cccc(Cl)c2F)C2(C(=O)Nc3cc(Cl)ccc32)C12CCCCC2,IC50,[1],552 nM
same,IC50,[2],< 31.6 nM
same,IC50,[3],< 31.6 nM
same,IC50,[4],< 31.6 nM
same,IC50,[5],< 31.6 nM
same,"viability, T/C",[6],56.4%
same,"viability, T/C",[7],55.3%
same,"viability, T/C",[8],59.8%
same,"viability, T/C",[9],42.5%
same,"viability, T/C",[10],6.79%
same,"viability, T/C",[11],0.13%
same,"viability, T/C",[12],49.1%
same,"viability, T/C",[13],38.6%
same,"viability, T/C",[14],38.5%
same,"viability, T/C",[15],25.4%
same,"viability, T/C",[16],0.52%
same,"viability, T/C",[17],0.11%
same,"viability, T/C",[18],23.3%
same,"viability, T/C",[19],18.5%
same,"viability, T/C",[20],12.5%
same,"viability, T/C",[21],10.9%
same,"viability, T/C",[22],0.07%
same,"viability, T/C",[23],0.11%
same,"viability, T/C",[24],6.62%
same,"viability, T/C",[25],5.04%
same,"viability, T/C",[26],5.41%
same,"viability, T/C",[27],1.84%
same,"viability, T/C",[28],0.03%
same,"viability, T/C",[29],0.12%
same,"viability, T/C",[30],1.83%
same,"viability, T/C",[31],2.77%
same,"viability, T/C",[32],1.2%
same,"viability, T/C",[33],0.65%
same,"viability, T/C",[34],0.14%
same,"viability, T/C",[35],1.2%
O=C(c1cc(Cc2n[nH]c(=O)c3ccccc23)ccc1F)N1CCN(C(=O)C2CC2)CC1 + CCN1C(C(=O)NC23CCC(C(=O)O)(CC2)CC3)C(c2cccc(Cl)c2F)C2(C(=O)Nc3cc(Cl)ccc32)C12CCCCC2,IC50,[1],1720 nM
same,IC50,[2],592 nM
same,IC50,[3],< 31.6 nM
same,IC50,[4],< 31.6 nM
same,IC50,[5],< 31.6 nM
same,"viability, T/C",[6],94.9%
same,"viability, T/C",[7],83.6%
same,"viability, T/C",[8],80.9%
same,"viability, T/C",[9],63.6%
same,"viability, T/C",[10],35%
same,"viability, T/C",[11],9.54%
same,"viability, T/C",[12],74.5%
same,"viability, T/C",[13],63%
same,"viability, T/C",[14],61%
same,"viability, T/C",[15],42.8%
same,"viability, T/C",[16],14.8%
same,"viability, T/C",[17],5.01%
same,"viability, T/C",[18],33.6%
same,"viability, T/C",[19],29.5%
same,"viability, T/C",[20],20.9%
same,"viability, T/C",[21],17.4%
same,"viability, T/C",[22],5.47%
same,"viability, T/C",[23],3.11%
same,"viability, T/C",[24],9.62%
same,"viability, T/C",[25],5.99%
same,"viability, T/C",[26],4.91%
same,"viability, T/C",[27],4.88%
same,"viability, T/C",[28],3.33%
same,"viability, T/C",[29],2.8%
same,"viability, T/C",[30],2.94%
same,"viability, T/C",[31],3.36%
same,"viability, T/C",[32],2.53%
same,"viability, T/C",[33],3.39%
same,"viability, T/C",[34],2.26%
same,"viability, T/C",[35],2.33%
NC(=O)C(=Cn1cnc(-c2cc(C(F)(F)F)cc(C(F)(F)F)c2)n1)c1cncnc1,"viability, T/C",compound 0.000949 µM,89.1% and 91.1% and 101%
same,"viability, T/C",compound 0.003 µM,102% and 93.5% and 96.2%
same,"viability, T/C",compound 0.00949 µM,83.6% and 84.6% and 93.2%
same,"viability, T/C",compound 0.03 µM,71.5% and 61.5% and 78%
same,"viability, T/C",compound 0.0949 µM,14.8% and 17.4% and 17.2%
same,"viability, T/C",compound 0.3 µM,3.13% and 3.94%
same,IC50,curve of compound,45.9 nM and 40.1 nM and 50.9 nM
